Here are results for 8 compounds from patent US10130616B2, “Securinine and norsecurinine analogue compounds for the treatment of myeloid disorders” (Case Western Reserve University, priority 2013, dated 2018).

In one assay the test system is HL-60 leukemic cells. To be noted: HL-60 cells; from U.S. patent application Ser. No. 14/029,066; cited from earlier work.
The next assay has as its system CD14 and CD11b. The following applies: flow cytometry; cited from earlier work.
For the next assay, the system named is HL-60 cells. Put plainly: Growth of HL-60 cells (IC50). The format is cell-based, human. The following applies: value bracketed between tested concentrations, read-out: HL-60, IC50.
The test system of a further assay is MOLT3. Put plainly: Growth inhibition of MOLT3 cells. To be noted: MOLT3 cells, read-out: MOLT3 IC50. The format is cell-based. As to the method:
(§1) In certain embodiments, securinine and norsecurinine analogues were administered to cancerous cells, such as acute myeloblastic leukemia cells (e.g., MOLT3 and OCI-AML3) and growth inhibition was analyzed. The analogues were effective in inhibiting myeloid growth in addition to promoting differentiation, and provide for reduced proliferation of acute myeloblastic leukemia cells (Table 2).

A further assay relates to OCI-AML3. The assay is described as follows: Growth inhibition of OCI-AML3 cells. Type of assay: cell-based. The following applies: OCI-AML3 cells, read-out: OCI-AML3 IC50. As to the method: as §1
Where [1] appears, read: Homo sapiens, HL-60, HL-60 cells.

Read-outs that look alike come from different tables or passages of the source.

In the case of `CC1=C(/C=C/C(C)=C/C=C/C(C)=C/C(=O)O)C(C)(C)CCC1` [ATRA, all-trans-retinoic acid], the “cells differentiated, NBT reduction assay” value with HL-60 leukemic cells is listed as ~95%. In addition, the “induction of cell surface markers CD14 and CD11b” value with CD14 and CD11b was “primarily induces CD11b”.
With `O=C1C=C2C(C#Cc3ccsc3)=C[C@@H]3C[C@@]2(O1)[C@H]1CCCCN31` [Compound 31], the IC50 (as a rule, the concentration that gives 50% inhibition) was 156 to 310 nM in the assay with HL-60 cells (setting [1]); 60 nM in the assay with MOLT3 (Homo sapiens, MOLT-3); 75 nM in the assay on OCI-AML3 (Homo sapiens, OCI-AML-3).
`CN(C)c1ccc(C#CC2=C[C@@H]3C[C@@]4(OC(=O)C=C24)[C@H]2CCCCN32)cc1` [Compound 36]: the IC50 in the assay with HL-60 cells (setting [1]) is 156 to 310 nM; in the assay on MOLT3 (Homo sapiens, MOLT-3), 115 nM; in the assay with OCI-AML3 (Homo sapiens, OCI-AML-3), 105 nM.
Consider `N#Cc1ccc(C#CC2=C[C@@H]3C[C@@]4(OC(=O)C=C24)[C@H]2CCCCN32)cc1` [Compound 46], for which the IC50 with HL-60 cells (setting [1]) was 310 to 625 nM; in the assay with MOLT3 (Homo sapiens, MOLT-3) it was 145 nM; with OCI-AML3 (Homo sapiens, OCI-AML-3), 205 nM.
`COc1cccc(C#CC2=C[C@@H]3C[C@@]4(OC(=O)C=C24)[C@H]2CCCCN32)c1` [Compound 47]: the IC50 in the assay with HL-60 cells (setting [1]) is 310 to 625 nM; in the assay on MOLT3 (Homo sapiens, MOLT-3), 150 nM; with OCI-AML3 (Homo sapiens, OCI-AML-3), 215 nM.
As to `O=C1C=C2C(C#Cc3ccc(OC(F)(F)F)cc3)=C[C@@H]3C[C@@]2(O1)[C@H]1CCCCN31` [Compound 48], the IC50 with HL-60 cells (setting [1]) is 310 to 625 nM; in the assay with MOLT3 (Homo sapiens, MOLT-3), > 300 nM; in the assay on OCI-AML3 (Homo sapiens, OCI-AML-3), > 300 nM.
With `O=C1C=C2C(C#Cc3ccsc3)=C[C@@H]3C[C@@]2(O1)[C@H]1CCCCN31` [INVS-MG-136-III], the IC50 in the assay with HL-60 cells (HL-60 cells) is < 70 nM; in the assay on MOLT3, 100 nM; with OCI-AML3 it was 115 nM.
Consider `C=C1CC[C@H](O)C/C1=C/C=C1\CCC[C@]2(C)[C@@H]([C@H](C)CCCC(C)C)CC[C@@H]12` [vitamin D3], for which the “induction of cell surface markers CD14 and CD11b” value in the assay with CD14 and CD11b is “induce CD14 and CD11b”.
